The values that follow come from article PMC7665192, “A natriuretic peptide from Arabidopsis thaliana (AtPNP-A) can modulate catalase 2 activity” (Scientific Reports, 2020).

Positions of bridges follow the written chain, without caps; N, C: chain ends. Residues, ends and D or L forms follow the SMILES beside them. *: point of attachment. Biotin = O=C1N[C@H]2[C@H](CS[C@H]2CCCCC(=O)*)N1

In test [1] the test system is A. thaliana (Col-0) mesophyll cell protoplasts. As to the kind of experiment: Mesophyll cell protoplast swelling (volume). The format is cell-based, Arabidopsis thaliana. As to conditions: 100 nM peptide or 1 μg mL^−1 rAtPNP-A, 0.4 M mannitol, 20 min, room temperature, n = 50, P < 0.0001. An excerpt: Peptides containing amino acid sequence of the active region of AtPNP-A and corresponding scrambled peptides, having the same amino acid composition but in a randomized order (Fig. 1a), with or without C-terminal biotin tag, were synthesized by GenScript (Piscataway, USA) at the purity level > 95% verified with HPLC and their biological activity was verified as described previously.
Figure 1 Biologically active peptide containing the active region of AtPNP-A protein binds to CAT2. (a) Domain organization of AtPNP-A and the amino acid sequences of C-terminally biotinylated peptides used in affinity chromatography-based experiments—a peptide containing the active site of AtPNP-A (indicated as pAtPNP-A) or the corresponding scrambled peptide (indicated as pScr). Cysteine residues forming a disulfide bond, characteristic to natriuretic peptide (NP)-like molecules, are underlined. SP, signal peptide. (b) Assaying biological activity of the AtPNP-A peptide (pAtPNP-A) and purified recombinant protein (rAtPNP-A). […] In each treatment, 50 randomly selected protoplasts with diameter > 20 µm were included in quantitative analysis (scale bar = 20 µm). Protoplast volume was measured and the data obtained from an exemplar experiment are plotted. […]

The subject of a further test is P. syringae. Also noted: method as in PMID 32409317, PMID 28401640. Conditions: cited from earlier work.
In another test the test system is PLL4, poltergeist like 4. The experiment in a line: Yeast two-hybrid (Y2H) screen. The format is binding, A. thaliana. As to conditions: bait AtPNP-A amino acids 26–130, prey At2g28890.1. Here is the method: (§1) The Y2H screen using AtPNP-A as bait was carried out by Dualsystems Biotech AG (Zurich, Switzerland). The bait construct for the screening was made by subcloning the cDNA fragment encoding exported portion of AtPNP-A (amino acids 26 to 130) (Fig. 1a) into the pLexA-DIR vector (Dualsystems Biotech AG). The bait construct was transformed into the strain NMY32 (MATa his3Δ200 trp1-901 leu2-3,112 (lexAop)8-ADE2 LYS2::(lexAop)4-HIS3 URA3::(lexAop)8-lacZ GAL4) using standard procedures. Correct expression of the bait was verified by western blotting of cell extracts using a mouse monoclonal antibody directed against the LexA domain (Dualsystems Biotech AG). The absence of self-activation was verified by co-transformation of the bait together with a control prey and selection on minimal medium lacking tryptophan, leucine, and histidine (selective medium). For the Y2H screen, the bait was co-transformed together with a normalized A. thaliana universal P02403 cDNA library (Dualsystems Biotech AG) into NMY32. 3.1 × 10^6 transformants were screened, yielding 96 transformants that grew on selective medium. […] Library plasmids were isolated from positive clones. The identity of positive interactants was determined by sequencing. DNA sequences translated in all three reading frames and searching against the SwissProt database using the BLASTX algorithm (https://blast.ncbi.nlm.nih.gov).

In test [2] the test system is ER, enhanced of rudimentary homologue, ATER. The experiment in a line: Yeast two-hybrid (Y2H) screen. The format is binding, A. thaliana. As to conditions: bait AtPNP-A amino acids 26–130, prey At5g10810.1. As for the experimental part: as §1
Test [3] deals with HISN5B, histidine biosynthesis 5B. The experiment in a line: Yeast two-hybrid (Y2H) screen. The format is binding, A. thaliana. Conditions: bait AtPNP-A amino acids 26–130, prey At4g14910.1. As for the experimental part:
as §1

A further test has as its system Expr, expansin-like B1. The experiment in a line: Yeast two-hybrid (Y2H) screen. The format is binding, A. thaliana. As to conditions: bait AtPNP-A amino acids 26–130, prey At4g17030.1. Here is the method:
as §1

The subject of test [4] is PGR1, photosynthetic electron transfer C. As to the kind of experiment: Yeast two-hybrid (Y2H) screen. The format is binding, A. thaliana. Conditions: bait AtPNP-A amino acids 26–130, prey At4g03280.1. As for the experimental part:
as §1

Test [5] has as its system RAP2.12, ethylene response factor. As to the kind of experiment: Yeast two-hybrid (Y2H) screen. In kind it is binding, A. thaliana. Conditions: bait AtPNP-A amino acids 26–130, prey At1g53910.1. As for the experimental part: as §1
For test [6], the system named is Protein containing PAM2 motif. The experiment in a line: Yeast two-hybrid (Y2H) screen. In kind it is binding, A. thaliana. As to conditions: bait AtPNP-A amino acids 26–130, prey At4g14270.1. Here is the method:
as §1

The subject of the next test is NUDX1, nudix hydrolase 1. The experiment in a line: Yeast two-hybrid (Y2H) screen. In kind it is binding, A. thaliana. Conditions: bait AtPNP-A amino acids 26–130, prey At1g68760.1. Here is the method:
as §1

Another test deals with FED A, ferredoxin 2. The experiment in a line: Yeast two-hybrid (Y2H) screen. In kind it is binding, A. thaliana. Conditions: bait AtPNP-A amino acids 26–130, prey At1g60950.1. Here is the method: as §1
The subject of test [7] is CLA, 1-deoxy-D-xylulose-5-phosphate synthase. The experiment in a line: Yeast two-hybrid (Y2H) screen. The format is binding, A. thaliana. As to conditions: bait AtPNP-A amino acids 26–130, prey At4g15560.1. Here is the method: as §1
The test system of a further test is COL1, constans-like 1. The experiment in a line: Yeast two-hybrid (Y2H) screen. In kind it is binding, A. thaliana. As to conditions: bait AtPNP-A amino acids 26–130, prey At5g15850.1. Here is the method:
as §1

The test system of test [8] is ADH5, alcohol dehydrogenase 2. As to the kind of experiment: Yeast two-hybrid (Y2H) screen. In kind it is binding, A. thaliana. Conditions: bait AtPNP-A amino acids 26–130, prey At5g43940.1. Here is the method:
as §1

Test [9] has as its system IGPD, imidazole glycerol-phosphate dehydratase. The experiment in a line: Yeast two-hybrid (Y2H) screen. In kind it is binding, A. thaliana. As to conditions: bait AtPNP-A amino acids 26–130, prey At3g22425.1. As for the experimental part:
as §1

In test [10] the test system is MAC5S, MOS4-associated complex subunit 5C. As to the kind of experiment: Yeast two-hybrid (Y2H) screen. In kind it is binding, A. thaliana. Conditions: bait AtPNP-A amino acids 26–130, prey At5g07060.1. As for the experimental part: as §1
Test [11] relates to ERF7, ethylene response factor 7. As to the kind of experiment: Yeast two-hybrid (Y2H) screen. In kind it is binding, A. thaliana. As to conditions: bait AtPNP-A amino acids 26–130, prey At3g20310.1. As for the experimental part: as §1
A further test relates to RCA, rubisco activase. The experiment in a line: Yeast two-hybrid (Y2H) screen. In kind it is binding, A. thaliana. As to conditions: bait AtPNP-A amino acids 26–130, prey At2g39730.1. As for the experimental part: as §1
The next test has as its system CAT2, catalase 2. The experiment in a line: Yeast two-hybrid (Y2H) screen. In kind it is binding, A. thaliana. Conditions: bait AtPNP-A amino acids 26–130, prey At4g35090.1. Here is the method: as §1
Test [12] has as its system Basic-leucine zipper (bZIP) TF family protein. The experiment in a line: Yeast two-hybrid (Y2H) screen. In kind it is binding, A. thaliana. Conditions: bait AtPNP-A amino acids 26–130, prey At2g31370.1. Here is the method:
as §1

As to `CC(C)C[C@@H]1NC(=O)[C@H](CC(N)=O)NC(=O)[C@H](CC(N)=O)NC(=O)[C@H](CCCCN)NC(=O)[C@H](C(C)C)NC(=O)CNC(=O)[C@H](C(C)C)NC(=O)[C@H](C(C)C)NC(=O)[C@H](CC(C)C)NC(=O)[C@H]([C@@H](C)O)NC(=O)[C@H](CCC(=O)O)NC(=O)[C@H](CCCNC(=N)N)NC(=O)[C@H](CCC(N)=O)NC(=O)[C@H]([C@@H](C)O)NC(=O)CNC(=O)[C@H](Cc2ccc(O)cc2)NC(=O)[C@@H](NC(=O)[C@H](C)NC(=O)[C@H](CO)NC(=O)[C@H](CCCNC(=N)N)NC(=O)[C@@H](NC(=O)[C@H](Cc2ccc(O)cc2)NC(=O)[C@@H]2CCCN2)[C@@H](C)O)CSSC[C@@H](C(=O)NCC(=O)N[C@@H](CCCNC(=N)N)C(=O)N[C@@H](CCCNC(=N)N)C(=O)N[C@@H](Cc2ccc(O)cc2)C(=O)N[C@@H](CCCNC(=N)N)C(=O)N[C@H](C(=O)N[C@@H](CCCNC(=N)N)C(=O)N[C@@H](CCCCNC(=O)CCCC[C@@H]2SC[C@@H]3NC(=O)N[C@@H]32)C(=O)O)C(C)C)NC(=O)[C@H](C)NC(=O)[C@H](CCCNC(=N)N)NC(=O)CNC(=O)[C@H](CC(N)=O)NC(=O)[C@H](CCC(N)=O)NC(=O)[C@H](Cc2c[nH]c3ccccc23)NC1=O` [pAtPNP-A] (H-PYTRSACYGTQRETLVVGVKNNLWQNGRACGRRYRVRK(Biotin)-OH; disulfide 7-30; N-terminus and C-terminus assumed), the “Protoplast swelling response (volume)” value in [1] is given as “significantly greater than the response elicited by the scrambled peptide (pScr)”.
As for “AtPNP-A: An A. thaliana PNP, termed AtPNP-A (At2g18660; Q9ZV52)”, the “Role in response to P. syringae infection” value in the test with P. syringae is given as “protective role in the response to infection with P. syringae”. Also, the Strength of binding entry with PLL4, poltergeist like 4 was “Strong”; in [2], “Weak”; in [3], “Moderate”; with Expr, expansin-like B1, “Weak”; in test [4] it was “Weak”; in test [5], “Strong”. In addition, the Strength of binding entry is on record as “Moderate” in [6]; “Moderate” in the test with NUDX1, nudix hydrolase 1; “Weak” in the test with FED A, ferredoxin 2; “Weak” in test [7]; “Weak” in the test on COL1, constans-like 1; “Weak” in test [8]. The Strength of binding entry in [9] is “Strong”; in [10], “Strong”; in [11] it was “Strong”; with RCA, rubisco activase, “Strong”; in the test with CAT2, catalase 2, “Weak”; in test [12] it was “Weak”.
